Reference: the Kinase Knowledgebase extract (Sharma et al. 2016)

Columns and labels:
[1] = target: PIK3CD (Human) (UniProt O00329); assay: Cell-Based Assay; conditions: raji
[2] = target: PIK3CB (Human) (UniProt P42338); assay: Enzyme Assay
[3] = target: PIK3CD (Human) (UniProt O00329); assay: Enzyme Assay
[4] = target: PIK3CG (human) (UniProt P48736); assay: Enzyme Assay
Chain of PIK3CG (human) (P48736 whole entry, looked up): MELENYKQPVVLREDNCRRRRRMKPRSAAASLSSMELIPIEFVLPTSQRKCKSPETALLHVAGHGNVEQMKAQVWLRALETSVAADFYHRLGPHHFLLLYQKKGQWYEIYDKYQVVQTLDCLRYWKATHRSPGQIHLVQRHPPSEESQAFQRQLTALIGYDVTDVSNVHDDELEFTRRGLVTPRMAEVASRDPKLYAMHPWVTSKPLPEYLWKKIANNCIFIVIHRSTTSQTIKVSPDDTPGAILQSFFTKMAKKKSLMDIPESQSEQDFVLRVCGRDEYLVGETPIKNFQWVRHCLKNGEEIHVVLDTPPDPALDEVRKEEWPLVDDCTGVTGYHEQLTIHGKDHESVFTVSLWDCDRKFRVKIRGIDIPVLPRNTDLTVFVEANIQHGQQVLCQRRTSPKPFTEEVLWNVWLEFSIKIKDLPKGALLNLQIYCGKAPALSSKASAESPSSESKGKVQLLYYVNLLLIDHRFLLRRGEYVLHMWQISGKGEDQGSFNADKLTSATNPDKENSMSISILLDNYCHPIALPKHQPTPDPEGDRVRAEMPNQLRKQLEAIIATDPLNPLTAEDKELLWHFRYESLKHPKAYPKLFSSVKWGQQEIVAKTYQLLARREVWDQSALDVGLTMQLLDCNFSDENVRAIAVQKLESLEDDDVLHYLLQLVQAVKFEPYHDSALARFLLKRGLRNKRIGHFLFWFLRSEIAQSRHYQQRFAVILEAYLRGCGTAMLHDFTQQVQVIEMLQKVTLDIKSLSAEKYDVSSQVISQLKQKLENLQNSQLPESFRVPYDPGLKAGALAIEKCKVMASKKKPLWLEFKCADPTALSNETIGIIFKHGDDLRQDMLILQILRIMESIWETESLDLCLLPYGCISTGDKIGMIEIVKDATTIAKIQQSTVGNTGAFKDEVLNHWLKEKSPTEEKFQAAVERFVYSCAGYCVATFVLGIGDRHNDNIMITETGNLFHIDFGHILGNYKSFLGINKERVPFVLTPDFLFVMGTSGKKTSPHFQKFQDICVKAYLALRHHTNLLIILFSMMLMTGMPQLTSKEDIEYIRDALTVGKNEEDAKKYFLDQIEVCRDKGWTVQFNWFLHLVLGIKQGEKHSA

Chain of PIK3CD (Human) (O00329 whole entry, looked up): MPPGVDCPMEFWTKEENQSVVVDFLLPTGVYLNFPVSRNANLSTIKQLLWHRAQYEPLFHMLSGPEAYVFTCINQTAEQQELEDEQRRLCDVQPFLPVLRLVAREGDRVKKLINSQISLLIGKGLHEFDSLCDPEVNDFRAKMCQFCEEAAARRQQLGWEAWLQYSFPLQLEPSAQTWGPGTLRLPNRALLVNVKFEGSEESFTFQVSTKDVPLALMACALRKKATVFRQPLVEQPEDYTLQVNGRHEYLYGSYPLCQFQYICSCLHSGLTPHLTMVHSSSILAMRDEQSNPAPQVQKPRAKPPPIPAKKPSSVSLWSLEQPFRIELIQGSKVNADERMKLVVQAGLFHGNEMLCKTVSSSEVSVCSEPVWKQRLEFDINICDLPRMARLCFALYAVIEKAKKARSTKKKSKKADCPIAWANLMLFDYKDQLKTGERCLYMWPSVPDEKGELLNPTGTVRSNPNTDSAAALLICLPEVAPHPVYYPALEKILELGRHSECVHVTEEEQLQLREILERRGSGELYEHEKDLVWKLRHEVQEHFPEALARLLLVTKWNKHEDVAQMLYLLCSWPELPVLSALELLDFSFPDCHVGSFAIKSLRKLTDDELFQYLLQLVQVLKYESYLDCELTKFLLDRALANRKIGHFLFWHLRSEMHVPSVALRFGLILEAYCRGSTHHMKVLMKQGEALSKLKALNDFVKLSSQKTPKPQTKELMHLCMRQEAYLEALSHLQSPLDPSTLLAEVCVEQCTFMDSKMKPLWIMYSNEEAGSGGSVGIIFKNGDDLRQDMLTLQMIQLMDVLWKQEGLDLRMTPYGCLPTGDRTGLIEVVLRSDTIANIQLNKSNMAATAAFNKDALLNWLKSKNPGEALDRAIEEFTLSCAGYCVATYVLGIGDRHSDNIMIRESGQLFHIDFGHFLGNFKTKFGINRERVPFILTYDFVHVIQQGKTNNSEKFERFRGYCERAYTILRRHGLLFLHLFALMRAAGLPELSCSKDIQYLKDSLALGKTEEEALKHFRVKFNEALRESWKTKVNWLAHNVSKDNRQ
Chain of PIK3CB (Human) (P42338 whole entry, looked up): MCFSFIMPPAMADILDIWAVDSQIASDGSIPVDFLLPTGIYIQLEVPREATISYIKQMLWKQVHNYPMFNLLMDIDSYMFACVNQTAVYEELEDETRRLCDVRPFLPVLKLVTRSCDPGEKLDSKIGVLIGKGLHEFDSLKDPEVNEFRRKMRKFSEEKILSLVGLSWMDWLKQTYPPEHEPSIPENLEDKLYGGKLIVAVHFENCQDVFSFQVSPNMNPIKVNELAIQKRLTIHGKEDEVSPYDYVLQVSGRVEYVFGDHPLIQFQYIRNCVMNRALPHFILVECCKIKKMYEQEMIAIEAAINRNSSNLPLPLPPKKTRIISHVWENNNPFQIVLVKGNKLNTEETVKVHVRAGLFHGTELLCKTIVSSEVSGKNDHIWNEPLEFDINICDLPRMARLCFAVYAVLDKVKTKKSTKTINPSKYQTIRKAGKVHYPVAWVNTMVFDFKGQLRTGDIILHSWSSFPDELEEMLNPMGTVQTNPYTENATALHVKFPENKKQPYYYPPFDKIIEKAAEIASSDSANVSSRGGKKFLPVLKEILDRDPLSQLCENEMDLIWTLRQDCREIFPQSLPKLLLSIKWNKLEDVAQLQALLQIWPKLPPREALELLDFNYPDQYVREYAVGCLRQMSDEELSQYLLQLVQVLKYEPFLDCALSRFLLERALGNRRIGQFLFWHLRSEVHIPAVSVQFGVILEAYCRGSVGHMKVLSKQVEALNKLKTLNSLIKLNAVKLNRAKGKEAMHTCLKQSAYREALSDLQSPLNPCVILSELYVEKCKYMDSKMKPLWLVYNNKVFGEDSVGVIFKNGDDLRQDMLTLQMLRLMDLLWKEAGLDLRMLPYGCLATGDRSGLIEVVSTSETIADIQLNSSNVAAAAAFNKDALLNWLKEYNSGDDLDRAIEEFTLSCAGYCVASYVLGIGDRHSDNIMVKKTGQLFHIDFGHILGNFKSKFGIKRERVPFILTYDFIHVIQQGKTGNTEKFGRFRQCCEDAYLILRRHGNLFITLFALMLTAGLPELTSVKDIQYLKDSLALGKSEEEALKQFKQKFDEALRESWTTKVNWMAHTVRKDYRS

C[C@H](NC(=O)c1c(N)nn2cccnc12)c1cc2cccc(C#Cc3cocn3)c2c(=O)n1-c1ccccc1
IC50 [1]: 100 to 500 nM
IC50 [2]: 1000 to 5000 nM
IC50 [3]: 1000 to 5000 nM
IC50 [4]: 1 to 100 nM
